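Tested at 5 concentrations; 48 h exposure; 96-well plates; endpoints linearly interpolated, else capped at highest concentration. GI50 is the concentration that inhibits growth by half. The concentration for full growth arrest is given as TGI.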
Assays:
Assay in all cases: NCI tumour cell line growth inhibition, 48 h
786-0 renal = test system: 786-0 renal
A498 renal = test system: A498 renal
A549 NSCLC = test system: A549 NSCLC
ACHN renal = test system: ACHN renal
BT-549 breast = test system: BT-549 breast
CAKI-1 renal = test system: CAKI-1 renal
CCRF-CEM leukemia = test system: CCRF-CEM leukemia
COLO 205 colon = test system: COLO 205 colon
DU-145 prostate = test system: DU-145 prostate
EKVX NSCLC = test system: EKVX NSCLC
HCC-2998 colon = test system: HCC-2998 colon
HCT-116 colon = test system: HCT-116 colon
HCT-15 colon = test system: HCT-15 colon
HL-60(TB) leukemia = test system: HL-60(TB) leukemia
HOP-62 NSCLC = test system: HOP-62 NSCLC
HOP-92 NSCLC = test system: HOP-92 NSCLC
HS 578T breast = test system: HS 578T breast
HT29 colon = test system: HT29 colon
IGROV1 ovarian = test system: IGROV1 ovarian
K-562 leukemia = test system: K-562 leukemia
KM12 colon = test system: KM12 colon
LOX IMVI melanoma = test system: LOX IMVI melanoma
M14 melanoma = test system: M14 melanoma
MALME-3M melanoma = test system: MALME-3M melanoma
MCF7 breast = test system: MCF7 breast
MDA-MB-231 breast = test system: MDA-MB-231 breast
MDA-MB-435 = test system: MDA-MB-435
MOLT-4 leukemia = test system: MOLT-4 leukemia
NCI-H226 lung = test system: NCI-H226 lung
NCI-H23 lung = test system: NCI-H23 lung
NCI-H460 lung = test system: NCI-H460 lung
NCI/ADR-RES ovarian = test system: NCI/ADR-RES ovarian
OVCAR-3 ovarian = test system: OVCAR-3 ovarian
OVCAR-4 ovarian = test system: OVCAR-4 ovarian
OVCAR-5 ovarian = test system: OVCAR-5 ovarian
OVCAR-8 ovarian = test system: OVCAR-8 ovarian
PC-3 prostate = test system: PC-3 prostate
RPMI-8226 leukemia = test system: RPMI-8226 leukemia
RXF 393 renal = test system: RXF 393 renal
SF-268 CNS = test system: SF-268 CNS
SF-295 CNS = test system: SF-295 CNS
SF-539 CNS = test system: SF-539 CNS
SK-MEL-2 melanoma = test system: SK-MEL-2 melanoma
SK-MEL-28 melanoma = test system: SK-MEL-28 melanoma
SK-MEL-5 melanoma = test system: SK-MEL-5 melanoma
SK-OV-3 ovarian = test system: SK-OV-3 ovarian
SN12C renal = test system: SN12C renal
SNB-19 CNS = test system: SNB-19 CNS
SNB-75 CNS = test system: SNB-75 CNS
T-47D breast = test system: T-47D breast
TK-10 renal = test system: TK-10 renal
U251 CNS = test system: U251 CNS
UACC-257 melanoma = test system: UACC-257 melanoma
UACC-62 melanoma = test system: UACC-62 melanoma
UO-31 renal = test system: UO-31 renal

O=C(NNc1nc(Cl)nc(N2CCN(C(c3ccccc3)c3ccccc3)CC2)n1)c1ccccc1
GI50 (786-0 renal): 2.21 µM | TGI (786-0 renal): 4.84 µM | GI50 (A498 renal): 3.55 µM | TGI (A498 renal): 18.8 µM | GI50 (A549 NSCLC): 13.5 µM | TGI (A549 NSCLC): 30.5 µM | GI50 (ACHN renal): 1.75 µM | TGI (ACHN renal): 3.17 µM | GI50 (BT-549 breast): 1.69 µM | TGI (BT-549 breast): 3.09 µM | GI50 (CAKI-1 renal): 1.68 µM | TGI (CAKI-1 renal): 3.1 µM | GI50 (CCRF-CEM leukemia): 1.28 µM | TGI (CCRF-CEM leukemia): 4.53 µM | GI50 (COLO 205 colon): 2.04 µM | TGI (COLO 205 colon): 4.64 µM | GI50 (DU-145 prostate): 2.15 µM | TGI (DU-145 prostate): 4.53 µM | GI50 (EKVX NSCLC): 1.99 µM | TGI (EKVX NSCLC): 4.29 µM | GI50 (HCC-2998 colon): 1.63 µM | TGI (HCC-2998 colon): 3.16 µM | GI50 (HCT-116 colon): 1.62 µM | TGI (HCT-116 colon): 3.06 µM | GI50 (HCT-15 colon): 1.62 µM | TGI (HCT-15 colon): 3.42 µM | GI50 (HL-60(TB) leukemia): 2.15 µM | TGI (HL-60(TB) leukemia): 6.26 µM | GI50 (HOP-62 NSCLC): 1.88 µM | TGI (HOP-62 NSCLC): 4.04 µM | GI50 (HOP-92 NSCLC): 1.72 µM | TGI (HOP-92 NSCLC): 3.68 µM | GI50 (HS 578T breast): 1.94 µM | TGI (HS 578T breast): 4.8 µM | GI50 (HT29 colon): 1.92 µM | TGI (HT29 colon): 4.07 µM | GI50 (IGROV1 ovarian): 1.66 µM | TGI (IGROV1 ovarian): 3.06 µM | GI50 (K-562 leukemia): 0.734 µM | TGI (K-562 leukemia): > 100 µM | GI50 (KM12 colon): 4.76 µM | TGI (KM12 colon): > 100 µM | GI50 (LOX IMVI melanoma): 1.54 µM | TGI (LOX IMVI melanoma): 2.94 µM | GI50 (M14 melanoma): 1.59 µM | TGI (M14 melanoma): 3.12 µM | GI50 (MALME-3M melanoma): 1.69 µM | TGI (MALME-3M melanoma): 3.34 µM | GI50 (MCF7 breast): 6.44 µM | TGI (MCF7 breast): > 100 µM | GI50 (MDA-MB-231 breast): 1.96 µM | TGI (MDA-MB-231 breast): 3.77 µM | GI50 (MDA-MB-435): 1.75 µM | TGI (MDA-MB-435): 3.21 µM | GI50 (MOLT-4 leukemia): 1.66 µM | TGI (MOLT-4 leukemia): 5.13 µM | GI50 (NCI-H226 lung): 7.25 µM | TGI (NCI-H226 lung): 25.8 µM | GI50 (NCI-H23 lung): 1.83 µM | TGI (NCI-H23 lung): 3.64 µM | GI50 (NCI-H460 lung): 1.93 µM | TGI (NCI-H460 lung): 3.77 µM | GI50 (NCI/ADR-RES ovarian): 2.08 µM | TGI (NCI/ADR-RES ovarian): 4.41 µM | GI50 (OVCAR-3 ovarian): 1.65 µM | TGI (OVCAR-3 ovarian): 3.13 µM | GI50 (OVCAR-4 ovarian): 1.68 µM | TGI (OVCAR-4 ovarian): 3.14 µM | GI50 (OVCAR-5 ovarian): 12.7 µM | TGI (OVCAR-5 ovarian): 40.7 µM | GI50 (OVCAR-8 ovarian): 1.99 µM | TGI (OVCAR-8 ovarian): 4.67 µM | GI50 (PC-3 prostate): 1.83 µM | TGI (PC-3 prostate): 3.81 µM | GI50 (RPMI-8226 leukemia): 3.79 µM | TGI (RPMI-8226 leukemia): > 100 µM | GI50 (RXF 393 renal): 1.62 µM | TGI (RXF 393 renal): 3.13 µM | GI50 (SF-268 CNS): 1.73 µM | TGI (SF-268 CNS): 3.33 µM | GI50 (SF-295 CNS): 10.8 µM | TGI (SF-295 CNS): 23.1 µM | GI50 (SF-539 CNS): 1.73 µM | TGI (SF-539 CNS): 3.15 µM | GI50 (SK-MEL-2 melanoma): 1.83 µM | TGI (SK-MEL-2 melanoma): 3.55 µM | GI50 (SK-MEL-28 melanoma): 1.75 µM | TGI (SK-MEL-28 melanoma): 3.25 µM | GI50 (SK-MEL-5 melanoma): 5.35 µM | TGI (SK-MEL-5 melanoma): 18.8 µM | GI50 (SK-OV-3 ovarian): 2.47 µM | TGI (SK-OV-3 ovarian): 6.94 µM | GI50 (SN12C renal): 1.72 µM | TGI (SN12C renal): 3.17 µM | GI50 (SNB-19 CNS): 1.76 µM | TGI (SNB-19 CNS): 3.33 µM | GI50 (SNB-75 CNS): 1.43 µM | TGI (SNB-75 CNS): 2.75 µM | GI50 (T-47D breast): 3.41 µM | TGI (T-47D breast): > 100 µM | GI50 (TK-10 renal): > 100 µM | TGI (TK-10 renal): > 100 µM | GI50 (U251 CNS): 1.69 µM | TGI (U251 CNS): 3.13 µM | GI50 (UACC-257 melanoma): 2.06 µM | TGI (UACC-257 melanoma): 4.67 µM | GI50 (UACC-62 melanoma): 1.72 µM | TGI (UACC-62 melanoma): 3.29 µM | GI50 (UO-31 renal): 2.54 µM | TGI (UO-31 renal): 17.2 µM

— PubChem BioAssay (NCI)
